A word on the IC50: it is the concentration that gives 50% inhibition. The low end stands for inhibition by little substance, the high end for a need for much substance.

The source of these data is patent US10005771B2, “Bicyclic derivatives having β2 adrenergic agonist and M3 muscarinic antagonist activities” (Almirall, S.A., priority 2014, dated 2018).

In experiment [1] the target is T1, human adrenergic β2 receptor (Homo sapiens, UniProt P07550).
T1 construct: purchased Perkin Elmer; host or cells: Sf9 cells
T1 sequence (P07550 whole entry): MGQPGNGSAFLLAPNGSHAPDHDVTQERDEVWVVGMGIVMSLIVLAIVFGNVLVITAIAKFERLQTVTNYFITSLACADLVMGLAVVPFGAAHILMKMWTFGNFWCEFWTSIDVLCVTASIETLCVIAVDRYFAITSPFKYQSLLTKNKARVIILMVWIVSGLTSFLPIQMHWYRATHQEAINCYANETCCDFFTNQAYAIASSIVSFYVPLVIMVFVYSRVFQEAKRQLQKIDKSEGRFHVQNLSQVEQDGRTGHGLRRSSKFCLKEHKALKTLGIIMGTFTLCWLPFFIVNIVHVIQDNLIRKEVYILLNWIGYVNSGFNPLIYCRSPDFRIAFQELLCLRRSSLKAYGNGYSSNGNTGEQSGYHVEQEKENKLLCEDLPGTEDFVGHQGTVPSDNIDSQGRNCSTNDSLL
Put plainly: Human adrenergic β2 receptor binding assay (3H-CGP12177, Sf9 membranes). The note with it: membranes from Sf9 cells, 0.6 nM 3H-CGP12177, 60 minutes at room temperature. The method, then:
Test 1: Human Adrenergic β1 and β2 Receptor Binding Assays
The study of binding to human adrenergic beta1 and beta2 receptors was performed using commercial membranes prepared from Sf9 cells where they are overexpressed (Perkin Elmer). The membrane suspensions (16 μg/well for beta1 and 5 μg/well for beta2) in assay buffer (75 mM Tris/HCl with 12.5 mM MgCl2 and 2 mM EDTA pH=7.4) were incubated with 0.14 or 0.6 nM of 3H-CGP12177 (Amersham) for beta 1 and beta 2 receptors respectively in a final volume of 250 μl, in GFC Multiscreen 96 well plates (Millipore) previously treated with assay buffer containing 0.3% PEI (Sigma). Non specific binding was measured in the presence of 1 μM propanolol. Incubation was maintained for 60 minutes at room temperature and with gentle shaking. The binding reactions were terminated by filtration and washing with 2.5 volumes of Tris/HCl 50 mM pH=7.4. The affinity of each test compound to the receptor was determined by using ten different concentrations ran in duplicate. IC50s were calculated using Activity Base software from IDBS and the four parameters-log equation.

The target in experiment [2] is T2, human muscarinic M3 receptors (Homo sapiens, UniProt P20309).
T2 construct: purchased Perkin Elmer; host or cells: CHO-K1 cells
T2 sequence (P20309 whole entry): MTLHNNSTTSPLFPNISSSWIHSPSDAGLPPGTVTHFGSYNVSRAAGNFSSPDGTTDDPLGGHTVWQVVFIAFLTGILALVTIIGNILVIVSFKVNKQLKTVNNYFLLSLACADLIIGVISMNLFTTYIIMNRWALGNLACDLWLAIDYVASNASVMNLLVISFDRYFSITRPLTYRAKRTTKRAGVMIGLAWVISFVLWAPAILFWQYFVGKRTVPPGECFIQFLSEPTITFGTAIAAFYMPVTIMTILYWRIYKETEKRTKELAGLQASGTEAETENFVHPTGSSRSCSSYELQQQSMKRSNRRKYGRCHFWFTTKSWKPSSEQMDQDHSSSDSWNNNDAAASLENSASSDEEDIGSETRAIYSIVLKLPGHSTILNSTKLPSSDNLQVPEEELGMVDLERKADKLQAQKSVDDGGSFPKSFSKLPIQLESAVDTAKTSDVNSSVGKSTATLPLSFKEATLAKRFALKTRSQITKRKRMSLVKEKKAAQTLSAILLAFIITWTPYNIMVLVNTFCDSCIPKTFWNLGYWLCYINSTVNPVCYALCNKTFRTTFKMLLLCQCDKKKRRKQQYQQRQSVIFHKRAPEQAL
Put plainly: Human muscarinic M3 receptors binding assay ([3H]-NMS, CHO-K1 membranes). The note with it: membranes from CHO-K1 cells, [3H]-NMS radioligand, two hours incubation. How it is done:
Test 2: Human Muscarinic M3 Receptors Binding Assays
The study of binding to human muscarinic M3 receptors was performed using commercial membranes (Perkin Elmer) prepared from CHO-K1 cells.
Radioligand binding experiments were conducted in 96 polypropylene well plates in a total volume of 200 μl. All reagents were dissolved in assay binding buffer (PBS with calcium and magnesium, SIGMA), except compounds that were dissolved in DMSO 100%. Non-specific binding (NSB) was measured in the presence of 1 μM atropine. [3H]-NM, used as the radioligand was incubated with membranes that express human muscarinic M3 at concentration of 4.9 μg/well.
After an incubation period of two hours with gentle shaking, 150 μl of the reaction mix were transferred to 96 GF/C filter plates (Millipore), previously treated with wash buffer (Tris 50 mM; NaCl 100 mM; pH: 7.4), containing 0.05% PEI (Sigma) during one hour. Bound and free [3H]-NMS were separated by rapid vacuum filtration in a manifold from Millipore and washed four times with ice cold wash buffer. After drying 30 min, 30 μl of OPTIPHASE Supermix were added to each well and radioactivity quantified using a Microbeta microplate scintillation counter.
The affinity of each test compound to the receptor was determined by using ten different concentrations ran in duplicate. IC50s were calculated using Activity Base software from IDBS and the four parameters-log equation.

Consider `COc1cc(OCC(=O)N(C)CCCc2cccc(C3(C(=O)O[C@H]4CN5CCC4CC5)CCCCC3)c2)c(Cl)cc1CNC[C@H](O)c1ccc(O)c2[nH]c(=O)ccc12` [Example 4, (3R)-1-azabicyclo[2.2.2]oct-3-yl 1-(3-{3-[{[2-chloro-4-({[(2R)-2-hydroxy-2-(8-hydroxy-2-oxo-1,2-dihydroquinolin-5-yl)ethyl]amino}methyl)-5-methoxyphenoxy]acetyl}(methyl)amino]propyl}phenyl)cyclohexanecarboxylate], for which the IC50 in experiment [1] was determined as 6.6 nM; in experiment [2], 0.74 nM.
